We go through one molecule from patent EP4755891A1, “ARF1 INHIBITOR AND USE THEREOF” (AOBIO PHARMACEUTICAL CO., LTD., priority 2023, dated 2025).

For one series, the system named is B16-F10 melanoma. Description: Inhibition of B16-F10 melanoma in C57B/6 mice. The format is in vivo. Conditions: 5 mg/kg, oral, two consecutive weeks. As to the method: In this example, the inhibitory effect of Compound 9 synthesized in the above preparation example on melanoma tumor growth was tested.
Murine B16-F10 cells were inoculated at a dose of 5×10^5 cells per mouse into the left abdomen of 6-week-old male mice. Approximately 7 days later, the mice were treated orally with ddH2O or the novel Arf1 inhibitor for two consecutive weeks. The mice were randomly divided into three groups: the control group, the Compound 9 treatment group, and the DU102 treatment group. The mice were administered ddH2O, 5 mg/kg of Compound 9 (dissolved in ddH2O), or 5 mg/kg of DU102 (dissolved in a solvent composed of 5% DMSO + 95% corn oil, as a positive control) for two consecutive weeks. Tumor diameters were measured every 2-3 days using a digital caliper (ULINE, Cat^# H-7352), and the tumor volume was calculated using the formula ½ × longitudinal diameter (length) × maximum transverse diameter (width). When the maximum tumor volume reached 2000 mm^3, the mice were euthanized.

A short description of series [1]: Pharmacokinetic study in SD rats. In kind it is in vivo. As to the method:
In this experiment, six male SD rats were divided into two groups based on similar body weight. These rats were administered Compound 9 via single intravenous injection and oral gavage, respectively. The intravenous injection dose was 2 mg/kg, while the oral gavage dose was 10 mg/kg. The vehicle for both intravenous and oral administration was a clear solution of 5% DMSO + 5% PEG400 + 90% water. The concentration for intravenous injection was 0.4 mg/mL, and for oral gavage was 1 mg/mL. K2-EDTA was used as the anticoagulant. The blood sampling time points were all at: 0.083, 0.25, 0.5, 1, 3, 6, 12, and 24 hours.
Blood samples of 0.02 mL were collected from the saphenous vein of all experimental animals, and the actual blood collection time was recorded. In this experiment, the deviation of the blood sampling time from the theoretical sampling time complied with the regulations (points within 1 hour after administration were within ±1 minute, and all others were within 5% of the theoretical time). After blood sample collection, the blood samples were immediately transferred to labeled centrifuge tubes containing K2-EDTA (0.5 M). The samples were then centrifuged (3000 g, 4°C, 15 minutes), and the plasma was collected. The plasma was transferred to a pre-cooled centrifuge tube, flash-frozen in dry ice, and stored in an ultra-low temperature freezer at -60°C or less until LC-MS/MS analysis was performed.

Another series deals with NF-κB signaling pathway. Description: Activation of NF-κB signaling pathway (phosphorylated P65, Western blot). The format is cell-based, Murine. Conditions: CT26 cells; FIG. 6. As to the method:
In this example, Compounds 3 and 9 synthesized in the above preparation examples were tested for their ability to activate the NF-κB signaling pathway, as indicated by an increase of phosphorylated P65. GCA, a known Arf1 inhibitor, was used as a positive control.
In CT26 cells treated with DMSO, GCA, Compound 3, or Compound 9, the relevant protein levels were evaluated by Western blot analysis as previously described (Wang et al., 2020).
On the technique in general: In western blotting, separated proteins are transferred to a membrane and probed.

A further series deals with Mouse neuroblastoma N2A. The series can be described thus: Test for Golgi morphology abnormalities (GM130 immunofluorescence). Conditions: N2A cells; FIG. 4. In kind it is cell-based. As to the method:
GCA, a known Arf1 inhibitor, was used as a positive control.
Mouse neuroblastoma N2A (N2a, ATCC®CCL-131™) was cultured, treated, and subjected to immunofluorescence staining as previously reported (Wang et al., 2021).

Molecules are shown by their SMILES. Entries after “also recorded” stand apart in the source; their conditions may differ. Where two headings read alike, the source gives them in different places.

Turning to `Cc1csc2ncnc(Nc3ccc4c(c3)ncn4C)c12` [Compound 9, 5-Methyl-N-(1-methyl-1H-benzo[d]imidazol-5-yl)thieno[2,3-d]pyrimidin-4-amine], the B16-F10 melanoma growth result in the series on B16-F10 melanoma (FIG. 8) is “effectively inhibit B16-F10 melanoma growth”. For the same molecule, in the series on B16-F10 melanoma (FIG. 8A), the “size of murine melanoma tumors” value is listed as “significantly inhibited the size of murine melanoma tumors”. Also, the “weight of murine melanoma tumors” value with B16-F10 melanoma (FIG. 8B) was “significantly reduced the weight of murine melanoma tumors”. Also, in series [1] (conclusion in words), the absorption in rats entry is “rapidly absorbed”, the “apparent volume of distribution” value is recorded as “moderate apparent volume of distribution” and the oral bioavailability entry is listed as “high oral bioavailability”. The Vd in series [1] (rat, plasma, Intravenous Injection, 2 mg/kg, male SD rats, read-out: Apparent Volume of Distribution Vdss) was 0.647 L/kg. In addition, the clearance (commonly the volume of plasma or blood freed of the substance per unit of time) in series [1] (rat, plasma, Intravenous Injection, 2 mg/kg, male SD rats, read-out: Clearance Cl) was found to be 39.8 mL/min/kg. Besides, the half-life in series [1] (rat, plasma, Intravenous Injection, 2 mg/kg, male SD rats, read-out: Half-Life T1/2 (converted)) is 11 min. The bioavailability in series [1] (rat, plasma, Oral Gavage, 10 mg/kg vs intravenous 2 mg/kg, male SD rats, read-out: Bioavailability F) was found to be 164%. Further, the AUC(0-t) in series [1] (rat, plasma, Oral Gavage, 10 mg/kg, male SD rats, read-out: Exposure AUC0-last) was found to be 6840 ng·h/mL. For the same molecule, the half-life in series [1] (rat, plasma, Oral Gavage, 10 mg/kg, male SD rats, read-out: Half-life T1/2 (converted)) is 34.2 min. In addition, the Cmax in series [1] (rat, plasma, Oral Gavage, 10 mg/kg, male SD rats, read-out: Maximum Concentration Cmax) is 4770 ng/mL. Besides, the “phosphorylation level of P65” value in the series with NF-κB signaling pathway is “increase the phosphorylation level of P65”. Besides, the “Golgi morphology (Golgi apparatus defects, distribution of Golgi marker GM130)” value in the series on Mouse neuroblastoma N2A is “induce Golgi apparatus defects; also recorded: effectively induce morphological changes in the Golgi apparatus”.
